Data taken from patent publication US20240224993A1, “ANTIMICROBIAL COMPOSITIONS” (GOJO Industries, Inc., priority 2009, published 2024).

Key:
S. marcescens #14756 = assay: ASTM E 2315 time-kill procedure, S. marcescens; format: cell-based; conditions: contact time 15 seconds
Procedure: (§1) In vitro efficacy of these compositions was measured against E. coli, S. aureus, E. faecium, S. marcescens, S. aureus (MRSA), P. mirabilis, K. pneumoniae, and S. epidermidis. The test was conducted according to the ASTM E 2315 method, “Standard Guide for Assessment of Antimicrobial Activity Using a Time-Kill Procedure.” Contact time was 15 seconds.
(§2) In vitro efficacy of these compositions was measured against S. marcescen, and S. aureus. The test was conducted according to the ASTM E 2315 method, “Standard Guide for Assessment of Antimicrobial Activity Using a Time-Kill Procedure.” Contact time was 15 seconds.

S. aureus #6538 = assay: ASTM E 2315 time-kill procedure, S. aureus; format: cell-based; conditions: contact time 15 seconds
Procedure: as §1, §2

[1] = 0.5 wt. % diol, 0 wt. % ethanol
[2] = 0.5 wt. % diol, 15 wt. % ethanol
[3] = 0.5 wt. % diol, 30 wt. % ethanol
[4] = 1.0 wt. % diol, 0 wt. % ethanol
[5] = 1.0 wt. % diol, 15 wt. % ethanol
[6] = 1.0 wt. % diol, 30 wt. % ethanol

SMILES | Log Reduction-S. marcescens #14756 (S. marcescens #14756; [1]) | Log Reduction-S. marcescens #14756 (S. marcescens #14756; [2]) | Log Reduction-S. marcescens #14756 (S. marcescens #14756; [3]) | Log Reduction-S. marcescens #14756 (S. marcescens #14756; [4]) | Log Reduction-S. marcescens #14756 (S. marcescens #14756; [5]) | Log Reduction-S. marcescens #14756 (S. marcescens #14756; [6]) | Log Reduction-S. aureus #6538 (S. aureus #6538; [1]) | Log Reduction-S. aureus #6538 (S. aureus #6538; [2]) | Log Reduction-S. aureus #6538 (S. aureus #6538; [3]) | Log Reduction-S. aureus #6538 (S. aureus #6538; [4]) | Log Reduction-S. aureus #6538 (S. aureus #6538; [5]) | Log Reduction-S. aureus #6538 (S. aureus #6538; [6]) | Log Reduction-S. marcescens #14756 (S. marcescens #14756; 0 wt. % diol, 30 wt. % ethanol) | Log Reduction-S. aureus #6538 (S. aureus #6538; 0 wt. % diol, 30 wt. % ethanol)
CCCCCCC(O)CO (centres unmarked) [1,2-octanediol] | 0.3 log | 0.1 log | >5.1 log | 3.5 log | 2.3 log | >5.1 log | 0 log | 0.2 log | 0.1 log | 0.2 log | 2.6 log | 0.9 log | – | –
CCO [ethanol] | – | – | – | – | – | – | – | – | – | – | – | – | 0.45 log | 0 log
